Assay results taken from patent publication US20250066306A1, “COMPOUNDS FOR TREATING MICROBIAL INFECTIONS, METHODS OF MAKING AND USES THEREOF” (McMaster University, priority 2023, published 2025).
“Also recorded” adds a separate entry of the source. Read-outs that look alike come from different tables or passages of the source.

Columns and labels:
[1] = tested on: HSV-1; conditions: ex vivo mouse model; earlier work; cited from earlier work
[2] = tested on: 01SD NPC cultures; test: Cytotoxicity in uninfected 01SD NPC cultures, flow cytometry with fixable viability dye; assay type: cell-based, human; conditions: uninfected 01SD NPCs
[3] = tested on: iPSC-derived neural progenitor cells (NPCs); conditions: earlier work; cited from earlier work
[4] = tested on: HSV-1; assay type: cell-based; conditions: 9001 and 01SD brain organoids, fourteen-week old; compounds 10 μM, ACV 50 μM; day 3 p.i.
[5] = tested on: Calu3 (ATCC, HTB-55) cells; conditions: assessed at NIH
[6] = tested on: eukaryotic initiation factor 2 (EIF2) signaling pathway; test: Ingenuity Pathway Analysis of differentially expressed genes; assay type: cell-based, human; conditions: IPA of DEG, treated vs vehicle; 10 μM
Protocol: Differentially Expressed Genes (DEG) measured by comparing 2b- and Ia (compound 8)-treated NPCs vs. vehicle-treated NPCs were subjected to Ingenuity Pathway Analysis (IPA). The top 10 pathways showing the greatest statistical significance (Fisher's Exact Test p-value) are shown. Activation (+ve z-score, orange bars) or inhibition (−ve z-score, blue bars) of each pathway is a measure of experimentally determined gene expression changes reported in the literature. Data were analyzed through the use of QIAGEN Ingenuity® Pathway Analysis. The intensity of color indicates the degree of activation/inhibition. Pathways without an activity pattern are in grey. Ratios (orange square above each pathway) represent the degree of overlap between DEG and all members of a given pathway. Y-axis on the right indicates ratio values.
Statistical significance was calculated using right-tailed Fisher Exact Probability Tests; biological pathways showing p-value<0.05 were considered statistically significant. […] IPA analyses also indicated net upregulation in the autophagy and sirtuin signaling pathways.

[7] = tested on: fibroblasts and hepatocytes; conditions: earlier work; cited from earlier work
[8] = tested on: HSV-1; conditions: earlier work, refs 3d, 5a; cited from earlier work
[9] = tested on: SARS-CoV2; test: NIH-NIAID in vitro SARS-CoV2 viral replication assay in Calu3 cells; assay type: cell-based
[10] = tested on: 02SF NPCs; test: RNA sequencing of uninfected NPCs treated with compounds; assay type: cell-based, human; conditions: 10 μM, 72 hours; of 12,433 expressed genes; FDR corrected p<=0.05
[11] = tested on: eIF2α phosphorylated on Serine 51; test: Immunocytochemistry of eIF2α phosphorylated on serine 51 in NPC cultures; assay type: cell-based, human; conditions: 9001 NPCs; 10 μM; 24 hours; vs untreated or 7-treated
Protocol: (A) NPCs derived from 9001 iPSC lines were exposed to compounds 7, Ia (compound 8), and 2b (10 μM). After 24 hours, cells were fixed and stained with an antibody that detects eIF2α phosphorylated on Serine 51 (EIF2S1). Nuclei were counterstained with Hoechst 33342, and phosphorylation was assessed by fluorescence microscopy. (B) The corrected total cell fluorescence (CTCF) was obtained by measuring EIF2S1 fluorescence in cells where a fluorescent signal could be detected and normalizing for cellular area using equation CTCF=integrated density−(cellular area×mean fluorescence of background readings) (C-D). Up-regulation of the EIF2A kinase EIF2AK3 (C) and the activated transcription factor 4 (ATF4) (D) in 2b- and Ia (compound 8)-treated NPCs. (E) Proposed mechanism of action of 2b and Ia (compound 8).

[12] = tested on: HSV-1; test: HSV-1 DualF infection of iPSC-derived NPC monolayers, flow cytometry of EGFP/RFP; assay type: cell-based; conditions: for reduction of the percentage of EGFP+-RFP+ cells / anti-HSV-1 activity: 10 μM; for reduction of the percentage of EGFP+-RFP+ cells: MOI 0.1, added 2 h after infection, day 3 p.i., flow cytometry; for antiviral efficacy of ACV compared with Ia: ACV 50 μM vs Ia 10 μM; for anti-HSV-1 activity: 01SD and 9001 NPCs
[13] = earlier work, refs 5a, 5b; cited from earlier work
[14] = Solubility in DMSO
[15] = tested on: HSV-1 strain 17syn+; test: In vivo mouse eye HSV-1 infection (corneal scarification), plaque assay of eye swabs; parameters: species or system ND4 Swiss mice
Excerpt: ND4 swiss mice were infected by corneal scarification with 1×10^5 pfu of HSV-1 strain 17syn+. Eyes were swabbed daily for 4 days and assayed for infectious virus by standard plaque assay.
The antiviral efficacy of compound Ia was further investigated in an in vivo mouse model. In order to assess the efficacy of Ia against an acute infection go HSV-1 in vivo, ND4 Swiss mice were infected in the eyes with HSV-1 following light corneal scarification. At the same time that the virus was applied, one group of mice (n=10) were treated with 2 uL of a 50 μM solution of R799 in DMSO and the other group (n=10) were treated with 2 uL DMSO (vehicle), applied to the eyes. The eyes were treated with either vehicle or Ia each day for 4 days. In order to assess the effect of Ia on the course of the infection, the eyes were swabbed daily with a Dacron swab, and the virus eluted in MEM medium. The swab eluate was assessed for the presence of infectious virus by standard plaque assay on rabbit skin cell monolayers.

[16] = tested on: 9001 and 01SD brain organoids; test: Organoid viability, calcein AM assay; assay type: cell-based, human; conditions: without HSV-1 infection; concentrations up to 50 μM
Protocol: (A) Sixteen-week old 9001 and 01SD brain organoids were infected individually with HSV-1 DualF construct (6000 pfu/organoid). After 2 hours the inocula were removed and Ia was added to varying concentrations (100 nM-[…]). The IC50 was estimated by determining the corrected total cell fluorescence (CTCF) obtained by measuring EGFP fluorescence in organoids using ImageJ and normalizing for background using equation CTCF=integrated density−(area of the organoid x mean fluorescence of background readings). (b) Cytotoxicity of compound Ia without HSV-1 infection was assessed using calcein-AM. The fluorescence of calcein-AM in each organoid was measured and CTCF was determined as described above. The data represent an average of six independent experiments. Error bars represent standard deviations. No significant difference were found between conditions. […]
Organoids viability was analyzing using calcein AM assay (BioLegend; catalogue #425201), according to manufacturer's instructions. […] After incubation, fluorescence signals were recorded using a LEICA DMIL LED Fluorescent microscope through a 0.16NA 4x air objective.
The corrected total cell fluorescence (CTCF) was obtained by measuring EGFP fluorescence in 799-treated and untreated organoids, and normalizing for whole organoid area using equation CTCF=integrated density−(whole organoid area x mean fluorescence of background readings).

O=C1N[C@H]2[C@H](O)[C@H](O)[C@@H](O)C[C@@H]2c2cc3c(cc21)OCO3 (relative stereo) [Compound 2b, trans-dihydrolycoricidine, reference compound]
HSV-1 reactivation from latency [1]: prevents HSV-1 reactivation from latency
concentration from which a reduction in cell viability was observed [2]: ≥ 25 µM
toxicity in comparison to acyclovir [3]: lower toxicity
anti-HSV-1 activity (expression of EGFP and RFP reporter genes) [4]: no expression of EGFP and RFP reporter genes
CC [5]: 3.48 µM
EIF2 signaling pathway z score [6]: −2.857
toxicity in comparison to acyclovir [7]: Slightly higher toxicity
inhibition of HSV-1 replication compared with acyclovir [8]: more efficaciously than acyclovir
IC50 ([9]; SARS-CoV2 in Calu3 cells, assessed at NIH, read-out: IC50): 180 nM
fraction of expressed genes significantly altered [10]: 62.5%
number of genes whose expression was significantly altered [10]: 7,766
eIF2α~P immunoreactivity [11]: increased eIF2α˜P immunoreactivity
reduction of the percentage of EGFP+-RFP+ cells ([12]; 01SD NPCs): 8016 fold
reduction of the percentage of EGFP+-RFP+ cells ([12]; 9001 NPCs): 424 fold

Nc1nc2c(ncn2COCCO)c(=O)[nH]1 [ACV, acyclovir, reference compound]
antiviral efficacy of ACV compared with Ia ([12]; 01SD NPCs, p=0.0208): inferior to Ia
antiviral efficacy of ACV compared with Ia ([12]; 9001 NPCs, p=0.3597): comparable

O=C1NC2C(CC(O)C(O)C2O)c2cc3c(cc21)OCO3 (stereo not drawn) [C3-epimer of 2b]
antiviral activity [13]: totally devoid of antiviral activity

COc1ccc2c(c1)[C@H]1C[C@H](O)[C@@H](O)[C@@H](O)[C@@H]1NC2=O [Compound 5, (2S,3R,4S,4aR,10bR)-2,3,4-Trihydroxy-9-methoxy-1,3,4,4a,5,10b-hexahydrophenanthridin-6(2H)-one]
solubility in DMSO [14]: incompletely soluble in DMSO
anti-HSV-1 activity [12]: no anti-HSV-1 activity

O=C1N[C@H]2[C@H](O)[C@H](O)[C@@H](O)C[C@@H]2c2cc(O)ccc21 [Compound 6, (2S,3R,4S,4aR,10bR)-2,3,4,9-Tetrahydroxy-1,3,4,4a,5,10b-hexahydrophenanthridin-6(2H)-one]
anti-HSV-1 activity (expression of EGFP and RFP reporter genes) [4]: no anti-HSV-1 activity
fraction of expressed genes significantly altered [10]: 2.1%
number of genes whose expression was significantly altered [10]: 256
anti-HSV-1 activity [12]: no anti-HSV-1 activity

COc1cccc2c1C(=O)N[C@H]1[C@H](O)[C@H](O)[C@@H](O)C[C@H]21 [Compound 7, (2S,3R,4S,4aR,10bR)-2,3,4-Trihydroxy-7-methoxy-1,3,4,4a,5,10b-hexahydrophenanthridin-6(2H)-one]
anti-HSV-1 activity (expression of EGFP and RFP reporter genes) [4]: no anti-HSV-1 activity
fraction of expressed genes significantly altered [10]: 0.3%
number of genes whose expression was significantly altered [10]: 33
anti-HSV-1 activity [12]: no anti-HSV-1 activity

O=C1N[C@H]2[C@H](O)[C@H](O)[C@@H](O)C[C@@H]2c2cccc(O)c21 [Compound Ia, (2S,3R,4S,4aR,10bR)-2,3,4,7-Tetrahydroxy-1,3,4,4a,5,10b-hexahydrophenanthridin-6(2H)-one]
yield of infectious virus in the tears (HSV-1 shedding) compared to vehicle ([15]; 2 uL of 50 μM solution in DMSO to the eyes daily for 4 days, n=10): dramatically reduced the yield of infectious virus; also recorded: dramatically reduces HSV-1 shedding
reduction of peak titer of infectious virus versus vehicle ([15]; 2 uL of 50 μM solution topically daily): ~3 fold
delay of peak titer of infectious virus versus vehicle ([15]; 2 uL of 50 μM solution topically daily, vehicle peak at day 2 post-infection): one
organoid viability (calcein AM) [16]: No significant reduction in organoid viability
cell viability of treated cultures ([2]; concentrations up to 50 μM, ACV and Ia compared): comparable
anti-HSV-1 activity (expression of EGFP and RFP reporter genes) [4]: no expression of EGFP and RFP reporter genes; also recorded: comparable to 2b and ACV
CC [5]: 1.92 µM
EIF2 signaling pathway z score [6]: −1.763
therapeutic selectivity ([9]; CC / IC50, SARS-CoV2 in Calu3 cells): 20
IC50 ([9]; Severe acute respiratory syndrome coronavirus 2, Calu-3): 90 nM
fraction of expressed genes significantly altered [10]: 59.8%
number of genes whose expression was significantly altered [10]: 7,433
eIF2α~P immunoreactivity [11]: increased eIF2α˜P immunoreactivity
reduction of the percentage of EGFP+-RFP+ cells ([12]; 01SD NPCs): 6.76 fold
reduction of the percentage of EGFP+-RFP+ cells ([12]; 9001 NPCs): 4.65 fold
